Assay results from publication PMC6116245 (Viruses, 2018).
≈ marks a conversion by molar mass, not a printed value. Where “and” joins values, the source holds several entries; their conditions need not be identical. Equal values may be shown once. Entries after “also recorded” stand apart in the source; their conditions may differ. Read-outs that look alike come from different tables or passages of the source. Blank lines part the entries; values can stand above or below the molecule they belong to.

Experiments:
[1] = tested on: human norovirus protease (genogroup I and II); parameters: method as in ref 29, 52 = [29]; details: FRET-based assays; cited from earlier work
FCV [2] = tested on: FCV; parameters: method as in ref 29, 30 = [29]; details: cell-based assays; read-out: EC50 against FCV; cited from earlier work
[3] = biological target: FCV protease (recombinant FCV Pro-Pol) (Feline calicivirus, UniProt Q66914); experiment: Protease FRET activity assay; format: biochemical, Feline calicivirus (FCV Urbana); details: for Inhibitory effect against FCV protease (in words): FRET assay, up to 50 µM
[4] = Cytotoxicity study, CellTitre-Blue viability assay; details: cat
FCV strain F-9 = experiment: FCV plaque reduction assay in CRFK cells; details: for Antiviral effect against FCV in cell culture (in words): plaque reduction assay; for Therapeutic index (TI = CC50/EC50): CRFK CC50 / FCV plaque reduction EC50
[5] = tested on: Crandell Rees Feline Kidney (CRFK) cells; experiment: Cytotoxicity study, CellTitre-Blue viability assay; details: read-out: Cell Viability CC50; CRFK cells, 48 h, CellTitre-Blue
[6] = biological target: FCV RdRp (recombinant FCV Pro-Pol) (Feline calicivirus, UniProt Q66914); experiment: Fluorescent RdRp assay (PicoGreen, poly(C) template); details: for RdRp Activity [% of Mock at 10 µM]: 10 µM compound, remaining activity relative to mock; for Reduction of RdRp activity compared to mock controls: fixed concentration of 10 µM
in vitro = details: cat, Cell Viability CC50
[7] = in vivo; cited from earlier work
human norovirus RdRp = tested on: human norovirus RdRp; parameters: method as in ref 59 = [59]; details: cited from earlier work
murine norovirus RdRp = tested on: murine norovirus RdRp; parameters: method as in ref 59 = [59]; details: cited from earlier work
FCV [8] = tested on: FCV; parameters: method as in ref 25 = [25]; details: in vitro assays; cited from earlier work
[9] = tested on: FCV RNA in infected CRFK cells; experiment: FCV genome reduction assay by RT-qPCR; format: cell-based, Feline calicivirus; details: 24 h, MOI 0.0005
[10] = in vivo; cited from earlier work; remark: listed apart in the source
GI norovirus replicon = tested on: GI norovirus replicon; parameters: method as in ref 64 = [64]; details: cleared the replicon from the host cells; cited from earlier work
rotavirus = tested on: rotavirus; parameters: method as in ref 54, 63 = [54]; details: cell culture; cited from earlier work
murine norovirus [11] = tested on: murine norovirus; parameters: method as in ref 64 = [64]; details: cited from earlier work
adenovirus = tested on: adenovirus; parameters: method as in ref 54, 63 = [54]; details: cell culture; cited from earlier work
canine coronavirus = tested on: canine coronavirus; parameters: method as in ref 54, 63 = [54]; details: cell culture; cited from earlier work
murine norovirus [12] = tested on: murine norovirus; parameters: method as in ref 47, 57 = [47]; details: cell culture-based assays; cited from earlier work
human norovirus = tested on: human norovirus; parameters: method as in ref 60 = [60]; details: B-cell culture system; cited from earlier work
human norovirus replicon = tested on: human norovirus replicon; parameters: method as in ref 47, 57 = [47]; details: cell culture-based assays; cited from earlier work
[13] = tested on: human GI.1 norovirus replicon; parameters: method as in ref 59 = [59]; details: cell culture; cited from earlier work
chikungunya replicon = tested on: chikungunya replicon; parameters: method as in ref 75 = [75]; details: cited from earlier work
HCV infectious virus = details: read-out: EC50 infectious HCV in cell cultures; cited from earlier work
FCV [14] = tested on: FCV; parameters: method as in ref 26 = [26]; details: read-out: EC50 against FCV in vitro; cited from earlier work
[15] = tested on: Crandell Rees Feline Kidney (CRFK) cells
[16] = Crandell Rees Feline Kidney (CRFK) cells, Cell Viability CC50, CRFK cells, 48 h, CellTitre-Blue
[17] = read-out: Plaque Reduction Assay EC50, FCV in CRFK cells, 24 h
[18] = Feline calicivirus, CRFK, 24 h, read-out: Plaque Reduction Assay EC50, FCV in CRFK cells, 24 h
[19] = FRET, 50 µM substrate, read-out: In vitro Protease IC50
[20] = Feline calicivirus, CRFK, 24 h, read-out: Inhibition of plaque formation
[21] = Feline calicivirus, CRFK, 24 h, read-out: Plaque Reduction Assay EC50

Chain of FCV protease (recombinant FCV Pro-Pol) (Q66914 1072-1763): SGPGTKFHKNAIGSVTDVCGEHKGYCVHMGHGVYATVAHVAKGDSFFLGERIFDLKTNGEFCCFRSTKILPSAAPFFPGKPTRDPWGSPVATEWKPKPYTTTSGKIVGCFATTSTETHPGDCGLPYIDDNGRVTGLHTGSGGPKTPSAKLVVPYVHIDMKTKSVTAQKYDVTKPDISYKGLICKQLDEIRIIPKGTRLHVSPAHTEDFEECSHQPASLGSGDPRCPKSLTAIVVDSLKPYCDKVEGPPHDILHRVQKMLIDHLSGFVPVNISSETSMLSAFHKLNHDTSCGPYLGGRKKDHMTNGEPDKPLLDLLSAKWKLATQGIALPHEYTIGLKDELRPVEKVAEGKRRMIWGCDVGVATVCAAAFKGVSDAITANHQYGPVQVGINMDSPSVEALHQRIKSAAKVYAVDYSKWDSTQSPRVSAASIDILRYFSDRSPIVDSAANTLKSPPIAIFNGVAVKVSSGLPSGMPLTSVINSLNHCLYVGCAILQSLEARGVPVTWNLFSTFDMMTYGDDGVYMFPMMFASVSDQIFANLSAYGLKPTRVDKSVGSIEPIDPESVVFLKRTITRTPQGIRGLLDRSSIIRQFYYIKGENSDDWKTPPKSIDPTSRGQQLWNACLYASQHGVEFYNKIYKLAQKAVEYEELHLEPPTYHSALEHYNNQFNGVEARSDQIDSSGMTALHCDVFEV
Chain of FCV RdRp (recombinant FCV Pro-Pol) (Q66914 1072-1763): as above

Compound: CCOC(=O)/C=C/[C@H](C[C@@H]1CCNC1=O)NC(=O)[C@@H](CC(=O)[C@@H](NC(=O)c1cc(C)on1)C(C)C)Cc1ccc(F)cc1 [Rupintrivir, rupintrivir]
- IC50 [1]: < 1 µM
- EC50 (FCV [2]): > 50 µM
- IC50 [3]: > 50 µM
- Inhibitory effect against FCV protease (in words) [3]: no inhibitory effect
- CC50 at 48 h [4, 16]: > 100 µM

Compound: Cc1nc(N=Nc2cc(S(=O)(=O)O)c3cc([N+](=O)[O-])cc(S(=O)(=O)O)c3c2)c(COP(=O)(O)O)c(C=O)c1O [PPNDS]
- Inhibition of plaque formation (FCV strain F-9; 10 µM, 24 h): < 10%
- Antiviral effect against FCV in cell culture (in words) (FCV strain F-9): did not display antivirals effects
- EC50 (FCV strain F-9; [17]): > 10 µM
- CC50 [5]: > 100 µM
- RdRp Activity [% of Mock at 10 µM] [6]: 7.4%
- Reduction of RdRp activity compared to mock controls [6]: 92.6%
- IC50 ([6]; read-out: RdRp Activity IC50, dose-response 0.1-100 µM): 2.7 µM

Compound: COc1ccc2c(c1)C=C1Cn3c-2c(C2CCCCC2)c2ccc(cc23)C(=O)NS(=O)(=O)N(C)CCOCCN(C)C1=O [TMC-647055]
- CC50 at 48 h [4, 16]: < 30 µM
- CC50 [5]: 27.1 µM
- RdRp Activity [% of Mock at 10 µM] [6]: 93.5%
- Reduction of RdRp activity compared to mock controls [6]: ≤ 10%

Compound: COc1ccc2c(c1)[C@@H]1C[C@]1(C(=O)N1[C@@H]3CC[C@H]1CN(C)C3)Cn1c-2c(C2CCCCC2)c2ccc(C(=O)NS(=O)(=O)N(C)C)cc21 [Beclabuvir]
- CC50 at 48 h [4, 16]: < 30 µM
- CC50 [5]: 27.5 µM
- RdRp Activity [% of Mock at 10 µM] [6]: 92.2%
- Reduction of RdRp activity compared to mock controls [6]: ≤ 10%

- EC50 (FCV strain F-9; [18]): > 50 µM
Compound: CC(=O)OCC(CCn1cnc2cnc(N)nc21)COC(C)=O [Famciclovir]
- inhibition at 50 µM (FCV strain F-9; Feline calicivirus, CRFK, read-out: Inhibition of plaque formation): 10%
- Antiviral effect against FCV in cell culture (in words) (FCV strain F-9): no antiviral effect observed
- CC50 at 48 h (in vitro): > 100 µM

Compound: CC(C)[C@H](N)C(=O)O[C@@H]1[C@@H](CO)O[C@@H](n2ccc(N)nc2=O)[C@]1(C)O [Valopicitabine]
- Adverse events [7]: dose-related gastrointestinal adverse events

Compound: C[C@@]1(O)[C@H](O)[C@@H](COP(=O)(O)OP(=O)(O)OP(=O)(O)O)O[C@H]1n1ccc(N)nc1=O [tri-phosphorylated 2CMC]
- IC50 (human norovirus RdRp): 2.4 µM
- IC50 (murine norovirus RdRp): 1.4 µM

Compound: COC(=O)/C=C/c1cccc(N(Cc2ccc(-c3ccc(N(C)C)cc3)cc2)C(=O)C2CCCCC2)c1 [fexaramine]
- Blocking of FCV entry (in words) (FCV [8]): effective at blocking FCV entry

Compound: CC(C)C[C@H](NC(=O)[C@@H](NC(=O)N[C@@H](Cc1ccccc1)C(=O)O)[C@@H]1CCN=C(N)N1)C(=O)N[C@H](C=O)Cc1ccccc1 [Chymostatin, chymostatin]
- Inhibitory effect against FCV protease (in words) [3]: no inhibitory effect
- IC50 [3, 19]: > 50 µM

Compound: CC(=O)Oc1ccccc1C(=O)Nc1ncc([N+](=O)[O-])s1 [Nitazoxanide, nitazoxanide]
- Reduction of FCV RNA levels compared to mock-treated cells ([9]; 2.5 µM): 80%
- Side-effects observed in cats [10]: diarrhea and vomiting
- Concentration reported to inhibit GI norovirus replicon replication (GI norovirus replicon): 5 µg/mL
- Therapeutic index (TI = CC50/EC50) (FCV strain F-9): 21.1
- EC50 (FCV strain F-9; [18]): 0.5 µM
- EC50 (FCV strain F-9; Feline calicivirus, CRFK, read-out: Plaque reduction EC50, FCV in CRFK cells, same value given in µg/mL): 0.2 µg/mL
- EC50 (FCV strain F-9; [17]): 0.6 µM
- EC50 rotavirus replication (rotavirus): 0.5 µg/mL (≈ 1.63 µM)
- IC50 [3]: > 10 µM
- CC50 at 48 h [4, 16]: 12.7 µM
- Activity against murine norovirus (in words) (murine norovirus [11]): ineffective
- EC50 adenovirus replication (adenovirus): 0.2 µg/mL (≈ 0.651 µM)
- IC50 [6]: > 10 µM
- EC50 canine coronavirus replication (canine coronavirus): 1 µg/mL (≈ 3.25 µM)

Compound: CC(C)C[C@H](NC(=O)[C@H](Cc1cccc2ccccc12)NC(=O)OCc1ccccc1)C(=O)N[C@H](C=O)C[C@@H]1CCNC1=O [NPI52]
- EC50 (FCV [2]): 0.02 µM

Compound: C[C@@]1(O)[C@H](O)[C@@H](CO)O[C@H]1n1ccc(N)nc1=O [2CMC, 2′-C-methylcytidine]
- Reduction of FCV RNA levels compared to mock-treated cells ([9]; 10 µM): 95%
- EC50 (murine norovirus [12]): ~2 µM
- Therapeutic index (TI = CC50/EC50) (FCV strain F-9): > 40
- EC50 (FCV strain F-9; [18]): 2.5 µM
- EC50 (FCV strain F-9; [17]): 2.6 µM
- EC50 (human norovirus): 0.3 µM
- EC50 (human norovirus replicon): ~18 µM
- CC50 at 48 h [4, 16]: > 100 µM
- EC50 [13]: 8.2 µM

Compound: NC(=O)c1nc(F)c[nH]c1=O [T-705, Favipiravir]
- inhibition at 10 µM (FCV strain F-9; [20]): < 10%
- EC50 (FCV strain F-9; [18]): > 10 µM
- CC50 at 48 h [4, 16]: > 100 µM

Compound: O=c1c(O)c(-c2ccc(O)c(O)c2)oc2cc(O)c(O)c(O)c12 [Quercetagetin, quercetagetin]
- IC50 (chikungunya replicon): 43.5 µM
- inhibition at 10 µM (FCV strain F-9; [20]): < 10%
- EC50 (FCV strain F-9; [21]): > 10 µM
- Antiviral effect against FCV in cell culture (in words) (FCV strain F-9): did not display antivirals effects; also recorded: did not inhibit FCV plaque formation
- EC50 (HCV infectious virus): 40.2 µM
- IC50 [6]: 2.8 µM
- RdRp Activity [% of Mock at 10 µM] [6]: 11.7%
- Reduction of RdRp activity compared to mock controls [6]: 88.3%

Compound: OC(c1cc(C(F)(F)F)nc2c(C(F)(F)F)cccc12)C1CCCCN1 (centres unmarked) [Mefloquine]
- EC50 (FCV [14]): 6.03 µM

Compound: CC(C)C[C@H](NC(=O)OCc1ccccc1)C(=O)N[C@@H](CC1CCNC1=O)C(O)S(=O)(=O)O (some centres unmarked) [GC376]
- EC50 (FCV [2]): 35 µM and 35.2 µM
- CC50 [15]: > 100 µM
- EC50 (FCV strain F-9; [17]): > 10 µM
- IC50 [3, 19]: 18 µM and 18.7 µM

Compound: CC(C)OC(=O)[C@H](C)N[P@](=O)(OC[C@H]1O[C@@H](n2ccc(=O)[nH]c2=O)[C@](C)(F)[C@@H]1O)Oc1ccccc1 [Sofosbuvir]
- inhibition at 10 µM (FCV strain F-9; [20]): < 10%
- EC50 (FCV strain F-9; [21]): > 10 µM
- CC50 at 48 h [4]: > 100 µM

Compound: O=C(O)c1ccc2c(c1)nc(-c1ccc(OCc3cc(N4CCCC4=O)ccc3-c3ccc(Cl)cc3)cc1F)n2C1CCCCC1 [JTK-109]
- RdRp Activity [% of Mock at 10 µM] [6]: 89.8%
- Reduction of RdRp activity compared to mock controls [6]: ≤ 10%

Compound: CC(C)C[C@H](NC(=O)OCc1ccccc1)C(=O)N[C@@H](C[C@@H]1CCNC1=O)C(O)S(=O)(=O)[O-].[Na+] (some centres unmarked) [GC376]
- Antiviral effect against FCV in cell culture (in words) (FCV strain F-9): did not display antivirals effects
- Inhibition of FCV protease ([3]; 50 µM): 75%
